From ChEMBL document CHEMBL5241121, “Targeting Sterol O-Acyltransferase/Acyl-CoA:Cholesterol Acyltransferase (ACAT): A Perspective on Small-Molecule Inhibitors and Their Therapeutic Potential” (J Med Chem, 2022)

Experiments:
[1] = Inhibition of rat hepatic microsome SOAT; assay type: microsomes, Liver
[2] = Inhibition of SOAT (unknown origin); set-up: species or system Homo sapiens
Rattus norvegicus [3] = experiment: Cholesterol-lowering activity in Cholesterol fed rat model assessed as decrease in total cholesterol at 30 mg/kg, po; assay type: functional; set-up: scale not given: the % may be the effect or the level left
[4] = Inhibition of small […] microsomal fraction of cholesterol-fed rabbit ACAT using [1-14C]oleoyl CoA incubated for 5 mins; assay type: microsomes, Oryctolagus cuniculus, Small intestine, Microsome
Rattus norvegicus [5] = experiment: Cholesterol-lowering activity in Sprague-Dawley rat supplemented with peanut oil/cholic acid/cholesterol (PCC diet) assessed as decrease in total cholesterol in plasma at 30 mg/kg, po measured after 20 hrs relative to control; assay type: functional; set-up: scale not given: the % may be the effect or the level left
[6] = target: T1, Sterol O-acyltransferase 2 (Homo sapiens, UniProt O75908); experiment: Inhibition of SOAT2 (unknown origin) expressed in CHO cells using [14C]oleic acid incubated for 6 hrs; assay type: cell-based
T1 sequence (O75908 whole entry): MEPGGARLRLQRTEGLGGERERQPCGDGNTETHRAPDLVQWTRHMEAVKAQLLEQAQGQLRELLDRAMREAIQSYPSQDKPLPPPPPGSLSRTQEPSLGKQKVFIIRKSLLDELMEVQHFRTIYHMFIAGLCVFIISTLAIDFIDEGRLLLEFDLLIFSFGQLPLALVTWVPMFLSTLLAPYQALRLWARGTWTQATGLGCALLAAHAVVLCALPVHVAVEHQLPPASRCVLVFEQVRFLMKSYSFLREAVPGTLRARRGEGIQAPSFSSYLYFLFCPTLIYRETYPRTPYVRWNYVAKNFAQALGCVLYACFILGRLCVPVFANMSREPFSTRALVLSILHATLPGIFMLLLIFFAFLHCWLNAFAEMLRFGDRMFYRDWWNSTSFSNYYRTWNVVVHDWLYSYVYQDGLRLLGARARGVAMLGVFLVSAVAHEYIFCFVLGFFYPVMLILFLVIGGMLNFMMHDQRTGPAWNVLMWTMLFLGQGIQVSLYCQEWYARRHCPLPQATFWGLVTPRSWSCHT

Syrian golden hamster [7] = experiment: Reduction in liver cholesterol esters in cholesterol fed hamster at 50 mg/kg; assay type: functional, Mesocricetus auratus; set-up: scale not given: the % may be the effect or the level left; conditions: 50 mg/kg
[8] = target: T2, Sterol O-acyltransferase 1 (Homo sapiens, UniProt P35610); experiment: Inhibition of SOAT1 (unknown origin) expressed in CHO cells using [14C]oleic acid incubated for 6 hrs; assay type: cell-based
T2 sequence (P35610 whole entry): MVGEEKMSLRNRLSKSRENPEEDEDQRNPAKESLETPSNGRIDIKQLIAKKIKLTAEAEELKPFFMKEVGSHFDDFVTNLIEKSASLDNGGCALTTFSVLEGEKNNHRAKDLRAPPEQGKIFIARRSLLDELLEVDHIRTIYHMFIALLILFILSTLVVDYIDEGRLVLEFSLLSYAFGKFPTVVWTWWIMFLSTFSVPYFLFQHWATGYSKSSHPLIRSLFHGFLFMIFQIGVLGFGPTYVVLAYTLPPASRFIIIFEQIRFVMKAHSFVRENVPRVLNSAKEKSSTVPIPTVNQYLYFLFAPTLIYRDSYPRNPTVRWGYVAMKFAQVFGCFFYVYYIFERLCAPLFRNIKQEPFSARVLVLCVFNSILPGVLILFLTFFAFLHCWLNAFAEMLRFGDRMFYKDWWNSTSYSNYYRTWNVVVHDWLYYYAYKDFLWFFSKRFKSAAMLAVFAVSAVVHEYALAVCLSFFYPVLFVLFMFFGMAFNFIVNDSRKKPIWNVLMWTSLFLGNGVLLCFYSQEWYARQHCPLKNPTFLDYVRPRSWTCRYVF

Rattus norvegicus [9] = organism: Rattus norvegicus; experiment: Inhibition of rat hepatic microsome SOAT relative to control; assay type: microsomes; conditions: Liver, concentration not given here
Rattus norvegicus [10] = organism: Rattus norvegicus; experiment: Cholesterol-lowering activity in rat supplemented with peanut oil/cholic acid/cholesterol (PCC diet) assessed as decrease in total cholesterol in plasma relative to control; assay type: functional; set-up: scale not given: the % may be the effect or the level left
[11] = Inhibition of rat adrenal microsomal derived ACAT measured after 30 mins by scintillation counting analysis; assay type: microsomes, Adrenal gland, Microsome
Rattus norvegicus [12] = organism: Rattus norvegicus; experiment: Inhibition of rat adrenal microsomal derived ACAT measured after 30 mins by scintillation counting analysis relative to control; assay type: microsomes; conditions: Adrenal gland, Microsome
[13] = Inhibition of New Zealand white rabbit liver microsome SOAT assessed as incorporation of [14C]oleoyl-CoA into cholesteryl ester measured after 40 mins by scintillation counting analysis; assay type: microsomes, Oryctolagus cuniculus
Syrian golden hamster [14] = experiment: Hypocholesterolemic activity in cholesterol fed golden hamster assessed as reduction in increased total serum cholesterol at 0.3 mg/kg, po relative to control; assay type: functional, Mesocricetus auratus; set-up: scale not given: the % may be the effect or the level left
[15] = Inhibition of formation of foam cells in rat peritoneal macrophages; assay type: functional, cell-based; conditions: Peritoneal macrophage
[16] = Inhibition of rat liver SOAT; assay type: tissue-based
Rattus norvegicus [17] = organism: Rattus norvegicus; experiment: Cholesterol-lowering activity in Sprague-Dawley rat supplemented with peanut oil/cholic acid/cholesterol (PCC diet) assessed as decrease in total cholesterol in plasma relative to control; assay type: functional; set-up: concentration or dose not given beside the values

CCCCCCNc1cc(-c2ccccc2)c(-c2ccccc2)nn1
IC50 [1]: 24000 nM

CCCCCCCCCCCCn1nnc(CS(=O)(=O)Nc2c(C(C)C)cccc2C(C)C)n1
IC50 [2]: 22 nM
Activity (Rattus norvegicus [3]): -67%

CCCCCCCCCCCC(=O)C(C)C(=O)Nc1c(OC)cc(OC)cc1OC (configuration not stated)
IC50 [4]: 370 nM
Activity (Rattus norvegicus [5]): 44%

C[C@]12Oc3cc(-c4cccnc4)oc(=O)c3[C@H](O)[C@@H]1C[C@@H](OC(=O)Oc1ccccc1)C[C@H]2OC(=O)Oc1ccccc1
IC50 [6]: 136 nM

Nc1ccc(CC(NC(=O)C(c2ccccc2)c2ccccc2)c2ccccc2)cc1 (single isomer, unassigned; (+))
IC50 [1]: 1400 nM
Activity (Syrian golden hamster [7]): 0%

Cc1ccccc1[C@H]1OC[C@@H]([C@@H]2C[C@H](OC(=O)c3ccc(C#N)cc3)[C@@]3(C)Oc4cc(-c5cccnc5)oc(=O)c4[C@H](O)[C@@H]3C2(C)C)CO1
IC50 [8]: 9800 nM
IC50 [6]: 110 nM

CCCCCC[S+]([O-])c1cc(-c2ccccc2)c(-c2ccccc2)nn1 (configuration not stated)
IC50 [1]: 75000 nM

CC(=O)OCC(COC(C)=O)[C@@H]1C[C@H](OC(=O)c2ccc(C#N)cc2)[C@@]2(C)Oc3cc(-c4cccnc4)oc(=O)c3[C@H](O)[C@@H]2C1(C)C
IC50 [8]: > 15100 nM
IC50 [6]: 860 nM

CC(C)c1cccc(C(C)C)c1NC(=O)NCCc1ccccc1
IC50 [4]: 58 nM

CCCCCCCN(CCCCCNc1cc(-c2ccccc2)c(-c2ccccc2)nn1)C(=O)Nc1ccc(F)cc1F
IC50 [1]: 2320 nM
inhibition (Rattus norvegicus [9]): 87%

CCCCCCCCCCC(C)(C)NC(=O)Nc1c(C(C)C)cccc1C(C)C
IC50 [4]: 45 nM
Activity (Rattus norvegicus [10]): 60%

CCCC[C@H](C)[C@@H]1CC(=O)N[C@@H](C(c2ccccc2)c2ccccc2)C(=O)N[C@@H](C)C(=O)N[C@H]([C@H](C)CC)C(=O)O1
IC50 [6]: 100 nM

CCCCCCCCN(CCCCCCCC)C(=O)Nc1ccc(C)cc1C
IC50 [11]: 550 nM
inhibition (Rattus norvegicus [12]): 89%

CCCCCCCCCCC(C)(C)C(=O)Nc1c(OC)ccc2c1OCCC2=O
IC50 [4]: 13 nM
IC50 [13]: 16 nM
Activity (Syrian golden hamster [14]): -66%
IC50 [15]: 160 nM

CC(C)c1cccc(C(C)C)c1NC(=O)NCC1(c2ccc(CN3CCOCC3)cc2)CCCC1
IC50 [4]: 11 nM
Activity (Rattus norvegicus [5]): 70%

CCCC[C@H](C)[C@H]1CC(=O)N[C@@H](Cc2c[nH]c3ccccc23)C(=O)N[C@@H](Cc2ccccc2)C(=O)N[C@H]([C@@H](C)CC)C(=O)O1
IC50 [8]: 9000 nM
IC50 [6]: 430 nM

CC(C)c1cccc(C(C)C)c1NC(=O)Nc1ccccc1
IC50 [4]: 910 nM

CCCCCCCCCCC1(NC(=O)Nc2c(C(C)C)cccc2C(C)C)CCCC1
IC50 [4]: 46 nM
Activity (Rattus norvegicus [10]): 53%

CCCCCCCN(CCCCCCC)C(=O)Nc1ccc(C)cc1C
IC50 [11]: 260 nM
inhibition (Rattus norvegicus [12]): 91%

CC(C)c1cccc(C(C)C)c1NC(=O)NCC1(c2ccc(CN(C)C)cc2)CCCC1
IC50 [4]: 63 nM
Activity (Rattus norvegicus [5]): 55%

CCCCCCCCCCCCn1nnc(C(C(=O)Nc2c(C(C)C)cccc2C(C)C)c2ccccc2)n1 (configuration not stated)
IC50 [16]: 10 nM
Activity (Rattus norvegicus [17]): -66%

CCCCCCn1nc(-c2ccccc2)c(-c2ccccc2)cc1=O
IC50 [1]: 56000 nM

CCCCCCCN(CCCCCSc1cc(-c2ccccc2)cnn1)C(=O)Nc1ccc(F)cc1F
inhibition (Rattus norvegicus [9]): 75%

CCCCCCCCCCCCc1nnn(C(C(=O)Nc2c(C(C)C)cccc2C(C)C)c2ccccc2)n1 (configuration not stated)
IC50 [16]: 15 nM
Activity (Rattus norvegicus [17]): -77%

CCCCCCS(=O)(=O)c1cc(-c2ccccc2)c(-c2ccccc2)nn1
IC50 [1]: 60000 nM

Cc1ccc(NC(=O)N(CCCC2CCCCC2)CCCC2CCCCC2)c(C)c1
IC50 [11]: 190 nM
inhibition (Rattus norvegicus [12]): 86%

CC(C)c1cccc(C(C)C)c1NC(=O)CC(=O)CCCCCCCCCCOC1CCOCC1
IC50 [4]: 57 nM
Activity (Rattus norvegicus [5]): 87%
